Experimental data reported in US20250108048A1, “STING AGONIST COMPOUNDS AND CONJUGATES” (SUTRO BIOPHARMA, INC., priority 2023, published 2025).
Read-outs that look alike come from different tables or passages of the source.

Assays:
[1] = tested on: NCI-H441; test: NCI-H441/PBMC co-culture: cancer cell count; assay type: cell-based, human; settings: Table 9
Experimental: (§1) For the co-culture assay, cancer cells were plated on transparent flat bottom polystyrene plates and allowed to attach overnight. On the next day, serially diluted (1:4) test articles were formulated at 3× starting concentration in complete RPMI media and added onto each well. Human PBMCs were thawed and resuspended in RPMI supplemented with 10% heat-inactivated fetal bovine serum from Hyclone, 1% Penicillin/Streptomycin and 2 mmol/L-glutamax. PBMCs were then added into the same well at a final ratio of PBMCs:cancer cells =30:1. Plates were incubated for 2 or 3 days at 37° C. with 5% CO2 in a cell culture incubator.
(§2) On the day of sample collection, cell culture supernatants were collected and stored at −80° C. until cytokine release analyses were performed. […] After incubation on ice for 1 hour, cells were washed with FACS buffer and fixed with 50 ul/well of 2% PFA (paraformaldehyde) for 20 minutes. Cells were then washed with FACS buffer again and read on Cytek flow cytometer. FACS data analysis was done by Flowjo software to identifymonocytes, B cells, CD4+ T cells, CD8+ T cells, NK cells and Dendritic cells and their activation status. Data from Flowjo was exported and plotted using non-linear regression analysis, log (agonist/inhibitor) vs. response, variable slope, 4-parameter fit equation in GraphPad Prism. […]

[2] = tested on: TROP2 negative NCI-H460 cells; test: NCI-H460/PBMC co-culture: cancer cell count; assay type: cell-based, human; settings: Table 10
Experimental: as §1, §2

[3] = tested on: TROP2 positive NCI-H292 Cells; test: Cytokine release from cancer cells (MSD); assay type: cell-based, human; settings: 120 hours; for EC50: Homo sapiens
Experimental: The cell supernatant was collected and IP-10 and IL-6 released in the cell culture medium was measured using Streptavidin single spot 96 well plates, compatible human antibody pairs, and calibrating solutions commercially available from MesoScale Discovery. Raw data generated by the Meso Scale Discovery (MSD®) SQ120 plate reader was imported into MSD Discovery Workbench software. Unknown sample values were interpolated from standard curves by the software and imported into Graphpad Prism. Each cytokine level was fitted with non-linear regression analysis, using log (agonist) vs. response, variable slope, 4-parameter fit equation in GraphPad Prism.

[4] = tested on: NCI-H292 cells; test: Immunogenic cell death markers (HMGB1 release, surface calreticulin); assay type: cell-based, human; settings: 48 hours; for EC50: Homo sapiens
Experimental: Immunogenic cell death elicited by the TROP2 ADC, iSAC, and exatecan were measured by cell surface translocate of calreticulin and release of HMGB1 in the cell culture supernatant. Briefly, TROP2 positive cell line NCI-H292 were seeded into a 96-well flat bottom plate 4 hours prior to the initialization of the assay. Test articles were formulated at a 2× starting concentration in cell culture medium, and samples were serial diluted (1:3) under sterile conditions and added onto the cells in duplicates. After incubation at 37° C. in a CO2 incubator for 48 hours, the cell supernatant was collected for measuring HMGB1 and the adherent cells were collected for calreticulin expression on the cell surface.
HMGB1 released in the supernatant was assessed via sandwich ELISA using mouse anti-human HMGB1 clone 2F6 (Sigma-Aldrich) as the capture, polyclonal rabbit anti-human HMGB1 (Abcam) as secondary, and polyclonal goat anti-rabbit IgG HRP as the detection antibody. The HMGB1 concentrations in the cell culture medium were calculated based a standard curve built on commercially available recombinant human HMGB1 (R&D Systems).
NCI-H292 cells were detached using Accutase (Innovative Cell Technologies) and viability was accessed using a 1:500 dilution of Zombie NIR viability dye. […] Surface calreticulin measures on the live cells were gathered using an Attune NXT Flow Cytometer (ThermoFisher Scientific) to obtain median fluorescence intensity values. All data were fitted with non-linear regression analysis, using log(agonist) vs. response, variable slope, 4 parameter fit equation using GraphPad Prism.

[5] = biological target: T1, hSTING H232 (Homo sapiens, UniProt Q86WV6); test: THP1-Dual KI-hSTING-H232 reporter assay (IRF pathway, secreted Lucia luciferase); assay type: cell-based; parameters: host or cells: THP1-Dual KI-hSTING-H232 (from THP1-Dual KO-STING); settings: THP1-Dual KI-hSTING-H232 cells, 24 hours; read-out: Reporter assay EC50 (nM) THP-1-H232
Experimental: (§3) The activities of the STING agonists to activate human or mouse STING pathways were evaluated in THP-1-Dual™, THP1-Dual™ KI-hSTING-R232, THP1-Dual™ KI-hSTING-H232 Cells and THP1-Dual™ KI-mSTING Cells. THP-1-Dual™ cells contains hSTING-HAQ haplotype and can be used to evaluate the activity of STING agonists by monitoring the activation of NF-κB pathway and the […] (IFN regulatory factor) pathways. THP1-Dual™ KO-STING cells were generated from THP1-Dual™ cells by stable knockout of the endogenous HAQ STING gene. THP1-Dual™ KI-hSTING-R232 cells, THP1-Dual™ KI-hSTING-H232 cells and THP1-Dual™ KI-mSTING cells were generated by transfecting THP1-Dual™ KO-STING cells with hSTING-R232 or hSTING-H232 or mSTING. Stimulating these reporter cells with a STING agonist activates TRF pathway and induces the production of a secreted Lucia luciferase in the cell culture medium, which can be determined using QUANTI-Luc™ reagent.
(§4) THP-1-Dual™, THP1-Dual™ KI-hSTING-R232, THP1-Dual™ KI-hSTING-H232 and THP1-Dual™ KI-mSTING reporter cells were purchased from Invivogen and maintained in manufacture recommended culture medium with required supplemental antibiotics. On the day of assay, the cells were harvested with Accutase and counted by the Vi-CELL Cell Viability Analyzers. Cells were resuspended in HEK blue detection medium and a total of 10000 cells were seeded in each well of a 384-well flat bottom plate. […] After incubation at 37° C. in a CO2 incubator for 24 hours, 20 μl of cell culture medium per well was transferred into a 384-well white (opaque) plate. 50 μl of QUANTI-Luc™ assay solution was then added to each well and the plate was immediately transferred to an ENVISION® plate reader to measure luminescence (Perkin-Elmer). Relative luminescence readings were converted to fold change of signal using untreated cells as controls. Data was fitted with non-linear regression analysis, using log (agonist) vs. response, variable slope, 4-parameter fit equation using GraphPad Prism. Data was expressed as fold change in signal vs. dose of STING agonist in nM with error bars indicating the Standard Deviation (SD) of the quadruplicates. There result was reported in Table 2 as EC50 (the midpoint of the curve, or concentration at which […] of the maximum effect was observed).

[6] = biological target: T2, hSTING-HAQ haplotype (Homo sapiens, UniProt Q86WV6, G230A/H232R/R293Q/R71H); test: THP-1-Dual reporter assay (endogenous hSTING-HAQ); assay type: cell-based; settings: THP-1-Dual cells (hSTING-HAQ), 24 hours
T2 construct: host or cells: THP-1-Dual
Experimental: as §3, §4

[7] = biological target: T3, mSTING (Mus musculus, UniProt Q3TBT3); test: 293-mSTING reporter assay; assay type: cell-based
T3 sequence (Q3TBT3 1-378): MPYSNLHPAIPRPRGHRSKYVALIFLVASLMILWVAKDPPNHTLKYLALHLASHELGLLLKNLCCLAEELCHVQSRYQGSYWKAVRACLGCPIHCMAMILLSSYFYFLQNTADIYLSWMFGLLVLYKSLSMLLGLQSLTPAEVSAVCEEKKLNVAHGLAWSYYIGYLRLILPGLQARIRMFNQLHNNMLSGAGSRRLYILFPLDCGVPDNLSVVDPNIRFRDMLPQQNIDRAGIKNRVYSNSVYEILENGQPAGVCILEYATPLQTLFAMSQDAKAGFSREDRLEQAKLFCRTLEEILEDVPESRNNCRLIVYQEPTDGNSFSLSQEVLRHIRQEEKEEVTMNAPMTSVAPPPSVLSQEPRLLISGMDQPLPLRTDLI

[8] = biological target: hSTING AQ (Homo sapiens, UniProt Q86WV6, G230A/H232R/R293Q); test: Surface plasmon resonance, hSTING AQ; assay type: binding; settings: read-out: hSTING AQ SPR (Kd)
[9] = biological target: hSTING WT (Homo sapiens, UniProt Q86WV6); test: Surface plasmon resonance, hSTING WT; assay type: binding; settings: read-out: hSTING WT SPR (Kd)
[10] = biological target: T4, hSTING-R232 (Homo sapiens, UniProt Q86WV6, H232R); test: THP1-Dual KI-hSTING-R232 reporter assay (IRF pathway, secreted Lucia luciferase); assay type: cell-based; settings: THP1-Dual KI-hSTING-R232 cells, 24 hours; read-out: Reporter assay EC50 (nM) THP-1-R232
T4 construct: host or cells: THP1-Dual KI-hSTING-R232 (from THP1-Dual KO-STING)
Experimental: as §3, §4

[11] = biological target: T1, hSTING H232; test: Surface plasmon resonance, hSTING H232; assay type: binding; settings: read-out: hSTING H232 SPR (Kd)
[12] = sandwich ELISA, read-out: HMGB-1 Release EC50

hSTING AQ, sequence (Q86WV6 whole entry G230A/H232R/R293Q): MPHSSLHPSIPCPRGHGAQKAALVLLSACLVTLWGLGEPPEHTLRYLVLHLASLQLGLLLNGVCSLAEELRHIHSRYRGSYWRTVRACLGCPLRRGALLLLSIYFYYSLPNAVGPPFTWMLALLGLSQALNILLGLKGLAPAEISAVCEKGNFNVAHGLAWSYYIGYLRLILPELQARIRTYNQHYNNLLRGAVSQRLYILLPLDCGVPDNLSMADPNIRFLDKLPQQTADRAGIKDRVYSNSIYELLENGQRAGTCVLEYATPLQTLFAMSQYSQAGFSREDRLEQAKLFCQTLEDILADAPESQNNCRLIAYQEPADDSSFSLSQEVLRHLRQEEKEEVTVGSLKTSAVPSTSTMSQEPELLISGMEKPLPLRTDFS
T1 sequence (Q86WV6 whole entry): as the sequence (Q86WV6 whole entry G230A/H232R/R293Q) above, with A230G, R232H, Q293R counted along it
T4 sequence (Q86WV6 whole entry H232R): as the sequence (Q86WV6 whole entry G230A/H232R/R293Q) above, with A230G, Q293R counted along it
hSTING WT, sequence (Q86WV6 whole entry H232R): as the sequence (Q86WV6 whole entry G230A/H232R/R293Q) above, with A230G, Q293R counted along it
T2 sequence (Q86WV6 whole entry R71H/G230A/H232R/R293Q): as the sequence (Q86WV6 whole entry G230A/H232R/R293Q) above, with R71H counted along it

SMILES | EC50 [5] [nM] | EC50 [6] [nM] | EC50 [7] [nM] | Kd [8] [µM] | Kd [9] [µM] | EC50 [10] [nM] | Kd [11] [µM] | IC50 ([1]; Homo sapiens) [µM] | Cancer Cell Count Span (Cell Count) [1] | IC50 ([2]; Homo sapiens, NCI-H460/PBMC co-culture (TROP2 negative)) [µM] | Cancer Cell Count Span (Cell Count) ([2]; NCI-H460/PBMC co-culture) | IL-6 Release Span [3] [pg/mL] | IP-10 Release Span [3] [pg/mL] | EC50 ([3]; read-out: IL-6 Release EC50) [µM] | EC50 ([3]; read-out: IP-10 Release EC50) [µM] | Calreticulin Span (MFI) [4] [MFI] | HMGB-1 Release Span [4] [ng/mL] | EC50 [4, 12] [µM] | EC50 ([4]; surface calreticulin on live cells, read-out: Calreticulin EC50) [µM]
CC[C@@]1(O)C(=O)OCc2c1cc1n(c2=O)Cc2c-1nc1cc(F)c(C)c3c1c2[C@@H](N)CC3 [Exatecan, reference compound] | – | – | – | – | – | – | – | 0.00044 | 5,749 Cell Count | 0.00038 | 23,530 Cell Count | 1410 | 203 | 0.0147 | 0.00087 | 783 | 55 | 0.00208 | 0.00019
CCn1nc(C)cc1C(=O)Nc1nc2cc(C(N)=O)ccc2n1C/C=C/Cn1c(NC(=O)c2cc(C)nn2CC)nc2cc(C(N)=O)cc(OCCCN3CC4(C3)CN(C(=O)CON)CCO4)c21 [LP-1-1, 7-[3-[8-(2-aminooxyacetyl)-5-oxa-2,8-diazaspiro[3.5]nonan-2-yl]propoxy]-1-[(E)-4-[5-carbamoyl-2-[(2-ethyl-5-methyl-pyrazole-3-carbonyl)amino]benzimidazol-1-yl]but-2-enyl]-2-[(2-ethyl-5-methyl-pyrazole-3-carbonyl)amino]benzimidazole-5-carboxamide] | > 150 | 50 to 150 | > 150 | ≤ 0.02 | ≤ 0.02 | > 150 | ≤ 0.02 | – | – | – | – | – | – | – | – | – | – | – | –
CCn1nc(C)cc1C(=O)Nc1nc2cc(C(N)=O)ccc2n1C/C=C/Cn1c(NC(=O)c2cc(C)nn2CC)nc2cc(C(N)=O)cc(OCCCN3CC4(CNCCO4)C3)c21 [Compound 1] | ≤ 50 | ≤ 50 | > 150 | ≤ 0.02 | ≤ 0.02 | ≤ 50 | ≤ 0.02 | – | – | – | – | >10000 | >4000 | > 0.1 | > 0.1 | – | 17 | 0.00606 | –

More lines, main results first:

EC50 [5] [nM] | EC50 [6] [nM] | EC50 [7] [nM] | Kd [8] [µM] | Kd [9] [µM] | EC50 [10] [nM] | Kd [11] [µM] | SMILES | IC50 ([1]; Homo sapiens) [µM] | Cancer Cell Count Span (Cell Count) [1] | IC50 ([2]; Homo sapiens, NCI-H460/PBMC co-culture (TROP2 negative)) [µM] | Cancer Cell Count Span (Cell Count) ([2]; NCI-H460/PBMC co-culture) | IL-6 Release Span [3] [pg/mL] | IP-10 Release Span [3] [pg/mL] | EC50 ([3]; read-out: IL-6 Release EC50) [µM] | EC50 ([3]; read-out: IP-10 Release EC50) [µM] | Calreticulin Span (MFI) [4] [MFI] | HMGB-1 Release Span [4] [ng/mL] | EC50 [4, 12] [µM] | EC50 ([4]; surface calreticulin on live cells, read-out: Calreticulin EC50) [µM]
> 150 | > 150 | > 150 | ≤ 0.02 | ≤ 0.02 | > 150 | ≤ 0.02 | CCn1nc(C)cc1C(=O)Nc1nc2cc(C(N)=O)ccc2n1C/C=C/Cn1c(NC(=O)c2cc(C)nn2CC)nc2cc(C(N)=O)cc(OCCCN3CC4(C3)CN(C(=O)CON=C(C)c3ccc(C[C@H](N)C(=O)O)cc3)CCO4)c21 (racemic) [LP-1-4, rac-(2S)-2-amino-3-[4-[N-[2-[2-[3-[6-carbamoyl-2-[(2-ethyl-5-methyl-pyrazole-3-carbonyl)amino]-3-[rac-(E)-4-[5-carbamoyl-2-[(2-ethyl-5-methyl-pyrazole-3-carbonyl)amino]benzimidazol-1-yl]but-2-enyl]benzimidazol-4-yl]oxypropyl]-5-oxa-2,8-diazaspiro[3.5]nonan-8-yl]-2-oxo-ethoxy]-C-methyl-carbonimidoyl]phenyl]propanoic acid] | – | – | – | – | – | – | – | – | – | – | – | –
50 to 150 | 50 to 150 | > 150 | ≤ 0.02 | ≤ 0.02 | 50 to 150 | ≤ 0.02 | CCn1nc(C)cc1C(=O)Nc1nc2cc(C(N)=O)ccc2n1C/C=C/Cn1c(NC(=O)c2cc(C)nn2CC)nc2cc(C(N)=O)cc(OCCCN3CC4(C3)CN(C(=O)CN)CCO4)c21 [Compound 3] | – | – | – | – | – | – | – | – | – | – | – | –
≤ 50 | 50 to 150 | > 150 | ≤ 0.02 | ≤ 0.02 | ≤ 50 | ≤ 0.02 | CCn1nc(C)cc1C(=O)Nc1nc2cc(C(N)=O)ccc2n1C/C=C/Cn1c(NC(=O)c2cc(C)nn2CC)nc2cc(C(N)=O)cc(OCCCN3CC4(C3)CN(C(=O)[C@@H](N)CC(C)C)CCO4)c21 [Compound 2, (E)-7-(3-(8-(L-leucyl)-5-oxa-2,8-diazaspiro[3.5]nonan-2-yl)propoxy)-1-(4-(5-carbamoyl-2-(1-ethyl-3-methyl-1H-pyrazole-5-carboxamido)-1H-benzo[d]imidazol-1-yl)but-2-en-1-yl)-2-(1-ethyl-3-methyl-1H-pyrazole-5-carboxamido)-1H-benzo[d]imidazole-5-carboxamide] | – | – | – | – | – | – | – | – | – | – | – | –
